From PMC2276102, “Phage Display Based Cloning of Proteins Interacting with the Cytoplasmic Tail of Membrane Immunoglobulins” (Developmental Immunology, 2002)

Assays:
[1] = tested on: cHPK1 (87 amino acids of the C-terminal part of HPK1) displayed on phage; assay: Surface plasmon resonance analysis (BIACORE), HIS-tagged Ig-tail peptides on NTA sensor chip, cHPK1 phagemids injected; assay type: binding, murine; conditions: for decrease of binding capacity / relative binding affinity for cHPK1 compared to the wild type IgE tail: after the elution step, IgE measurement set to 100%; for Elution after 100 s, Relative RUs: binding of cHPK1 phage (10^9 cfu in TBS) to immobilised HIS-tagged Ig-tail, value remaining after 100 s of elution; for Injection after 60 s, Relative RUs: binding of cHPK1 phage (10^9 cfu in TBS, injected 60 s) to immobilised HIS-tagged Ig-tail, 400 (±25) RUs peptide coupled, value taken 60 s after injection; for Elution after 100 s, %: relative RUs after 100 s elution, IgE values were set to 100%
Excerpt: Phage Display Based Cloning of Proteins Interacting with the Cytoplasmic Tail of Membrane Immunoglobulins* ROLAND GEISBERGERa , MARTIN PRLICa , GERTRUDE ACHATZ-STRAUSSBERGERa , IRIS OBERNDORFERa , ELKE LUGERb , MARINUS LAMERSc , RETO CRAMERId , ULRICH APPENZELLERd , JURGEN WIENANDSe , MICHAEL BREITENBACHa , FATIMA FERREIRAa and GERNOT ACHATZa, a Department of Genetics and General Biology, Hellbrunnerstrae 34, A-5020 Salzburg, Austria; b DRFZ, Schumannstrasse 21/22, D-10117, Germany; c MPI for Immunobiology, Stubeweg 51, D-79108 Freiburg, Germany; d SIAF, Obere Strasse 22, CH-7270 Davos, Switzerland; e Department of Biochemistry I, Universitaetsstrasse 25, D-33615 Bielefeld, Germany. The reduced quantity and quality of serum immunoglobulins (sIgs) in mutant mice expressing truncated cytoplasmic tails of IgE and IgG1 indicate an active role for the cytoplasmic domains of mIgG1 and mIgE. We used phage display technology to identify candidate proteins able to interact with the cytoplasmic tail of mIgE. […] The interaction of HPK1 with the cytoplasmic domains of membrane immunoglobulins indicate an active role of the tails as part of an isotype specific signal transduction, independent from the Iga/Igb heterodimers, and may represent a missing link to upstream regulatory elements of HPK1 activation. Keywords: Antigen receptor; Cytoplasmic tail; HPK1; Phage display; Surface plasmon resonance INTRODUCTION The B cell antigen receptor (Vitetta et al., 1980; Reth, 1992) plays a central role in almost all processes along the developmental pathway of B cells, i.e. the generation, maturation, survival and activation of B cells. B cell antigen receptors (BCR) exist as a complex of membrane immunoglobulins (mIgs) and at least two other transmem- brane polypeptides, called Ig-a and Ig-b, which connect the antigen receptor to the tyrosine phosphorylation pathways in the cell. In this complex, mIgs serve as isotype specific antigen receptors on the surface of B lymphocytes. All isotypes of mIgs can form a complex with Ig-a and Ig-b (Venkitaraman et al., 1991) indicating an involvement of all isotypes in the signal transduction pathway. The earliest detectable biochemical event that follows BCR-aggregation is increased activity of protein tyrosine kinases (PTKs) of the Syk- and Src-family, which phosphorylate distinct tyrosine residues within conserved sequences present on the cytoplasmic portions of Ig-a and Ig-b (Reth, 1992). Phosphorylation of Ig-a and Ig-b occurs on the tyrosine residues of immuno receptor tyrosine-based activation motif (ITAM) and on the non-ITAM tyrosine 204 of Ig-a (Engels et al., 2001). Once phosphorylated, ITAMs provide binding sites for SRC homology 2 (SH2) domains of the Src and Syk PTKs and the adaptor protein SLP-65 (Engels et al., 2001), thus initiating several signaling pathways, the most important of which are the PLC-g, the Ras and the PI3-kinase pathways (Reth and Wienands, 1997; Kurosaki, 1999). Various external stimuli such as cytokine binding, interaction with other cells as well as stress factors including osmotic shock, heat or ionizing irradiation can influence the signaling cascade initiated by BCR engagement and they can contribute to differential alteration of the pattern of gene expression. Obviously, between Ig subclasses, there should be no differences in the transduction of signals regulating the central features of the immune system (Nussenzweig, 1997) such as the control of allelic exclusion, early cellular transitions and in the function of the membrane- bound immunoglobulin as a receptor for antigen capture ISSN 1044-6672 print q 2002 Taylor & Francis Ltd DOI: 10.1080/1044667031000137584 *Presented at the Proceedings of the 4th Germinal Center Conference, Groningen, The Netherlands, June 2002. Corresponding author. Address: Institut fur Genetik, Hellbrunnerstrae 34, A-5020 Salzburg, Austria. Tel.: 43-662-8044-5764. Fax: 43-662- 8044-144. […]

[2] = tested on: cHPK1 (87 amino acids of the C-terminal part of HPK1) displayed on phage; assay: Surface plasmon resonance analysis (BIACORE), IgE tail peptide covalently coupled to CM5 sensor chip, cHPK1 phagemids injected; assay type: binding, murine; conditions: CM5 sensor chip with covalently coupled IgE tail peptide (1683 RUs), random peptide as reference channel; 1 x 10^9 cHPK1 displaying phages injected over 200 s, washing with TBS
Excerpt: Phage Display Based Cloning of Proteins Interacting with the Cytoplasmic Tail of Membrane Immunoglobulins* ROLAND GEISBERGERa , MARTIN PRLICa , GERTRUDE ACHATZ-STRAUSSBERGERa , IRIS OBERNDORFERa , ELKE LUGERb , MARINUS LAMERSc , RETO CRAMERId , ULRICH APPENZELLERd , JURGEN WIENANDSe , MICHAEL BREITENBACHa , FATIMA FERREIRAa and GERNOT ACHATZa, a Department of Genetics and General Biology, Hellbrunnerstrae 34, A-5020 Salzburg, Austria; b DRFZ, Schumannstrasse 21/22, D-10117, Germany; c MPI for Immunobiology, Stubeweg 51, D-79108 Freiburg, Germany; d SIAF, Obere Strasse 22, CH-7270 Davos, Switzerland; e Department of Biochemistry I, Universitaetsstrasse 25, D-33615 Bielefeld, Germany. The reduced quantity and quality of serum immunoglobulins (sIgs) in mutant mice expressing truncated cytoplasmic tails of IgE and IgG1 indicate an active role for the cytoplasmic domains of mIgG1 and mIgE. We used phage display technology to identify candidate proteins able to interact with the cytoplasmic tail of mIgE. […] The interaction of HPK1 with the cytoplasmic domains of membrane immunoglobulins indicate an active role of the tails as part of an isotype specific signal transduction, independent from the Iga/Igb heterodimers, and may represent a missing link to upstream regulatory elements of HPK1 activation. […]

[3] = molecular target: HIS-tagged cytoplasmic tail of IgG2a; assay: SPR; BIACORE NTA sensor chip; HIS-tagged Ig-tail peptides (150 nM in 0.01 M Hepes, 0.15 M NaCl, 50 mM EDTA, 0.005% surfactant P20) captured via the HIS-tag, 400 (+/-25) RUs each; 10^9 cfu cHPK1 phage in TBS injected 1 min, 100 s elution; relative RUs, IgE set to 100%
[4] = molecular target: HIS-tagged cytoplasmic tail of IgG3; assay: as above
[5] = molecular target: HIS-tagged modified IgE cytoplasmic tail lacking the four amino acids T-F-Q-D (IgEDTFQD) (mouse); assay: as above
[6] = molecular target: HIS-tag deficient random peptide; assay: as above
[7] = molecular target: HIS-tagged cytoplasmic tail of IgM (KVK); assay: as above
[8] = molecular target: HIS-tagged cytoplasmic tail of IgG1 (mouse); assay: as above
[9] = molecular target: HIS-tagged cytoplasmic tail of IgG2b; assay: as above
[10] = molecular target: HIS-tagged cytoplasmic tail of membrane IgE (28 amino acids) (mouse); assay: as above
[11] = molecular target: HIS-tagged cytoplasmic tail of membrane IgE (28 amino acids) (mouse); assay: SPR; BIACORE CM5 chip; IgE-tail peptide covalently coupled to Fc1 (1683 RUs), random peptide (1704 RUs) on Fc2 as reference; 1 x 10^9 cfu phagemids in TBS injected, then washing with TBS; relative response

| Substance | decrease of binding capacity / relative binding affinity for cHPK1 compared to the wild type IgE tail [1] | Elution after 100 s, Relative RUs [1] [RUs] | Injection after 60 s, Relative RUs [1] [RUs] | Elution after 100 s, % [1] [%] | further results |
| --- | --- | --- | --- | --- | --- |
| (6 H) KVKWIFSSVVELKQKISPDYRNMI- GQGA [IgG2b, HIS-tagged synthetic cytoplasmic tail of IgG2b] | about 60% | 72 | 276 | 41 |  |
| (6 H) KVKWIFSSVVELKQTISPDYRNMI- GQGA [IgG2a, HIS-tagged synthetic cytoplasmic tail of IgG2a] | about 60% | 68 | 284 | 38 |  |
| (6 H) KVKWIFSSVVELKQTLVPEYKNMI- GQAP [IgG1, HIS-tagged synthetic cytoplasmic tail of IgG1] |  | 128 | 819 | 72 |  |
| (6 H) KVKWIFSSVVQVKQTAIPDYRNMI- GQGA [IgG3, HIS-tagged synthetic cytoplasmic tail of IgG3] |  | 120 | 744 | 67 |  |
| (6 H) KVKWVFSTPMQDTPQYA- NILQTRA [IgEDTFQD, HIS-tagged IgE cytoplasmic tail peptide lacking the TFQD amino acids] | 47% | 94 | 563 | 53 |  |
| HHHHHHKVKWVFSTPMQDTPQTFQDYA- NILQTRA [IgE, HIS-tagged synthetic peptide of the 28 amino acid long cytoplasmic tail of mIgE] |  | 177 | 691 |  | relative increase in affinity after the elution step [2]: 500 RUs |
| SPHRCRIHPRPSKTMPTSSRPGH- RCDASTH [Random peptide, HIS-tag deficient random peptide used as control, reference compound] |  | ~0 | 310 | ~0 |  |
| cHPK1, 87 amino acids of the C-terminal part of murine hematopoietic progenitor kinase 1 (HPK1), displayed on phage (domain or fragment) |  |  |  |  | % of the IgE tail's RUs after elution [3]: 38%; relative RUs 60 s after injection [3]: 284 RU; relative RUs 100 s after elution [3]: 68 RU; % of the IgE tail's RUs after elution [4]: 67%; relative RUs 60 s after injection [4]: 744 RU; relative RUs 100 s after elution [4]: 120 RU; % of the IgE tail's RUs after elution [5]: 53%; relative RUs 60 s after injection [5]: 563 RU; relative RUs 100 s after elution [5]: 94 RU; relative RUs 60 s after injection [6]: 310 RU; relative RUs 60 s after injection [7]: 617 RU; % of the IgE tail's RUs after elution [8]: 72%; relative RUs 60 s after injection [8]: 819 RU; relative RUs 100 s after elution [8]: 128 RU; % of the IgE tail's RUs after elution [9]: 41%; relative RUs 60 s after injection [9]: 276 RU; relative RUs 100 s after elution [9]: 72 RU; relative RUs 60 s after injection [10]: 691 RU; relative RUs 100 s after elution [10]: 177 RU; relative RUs after the elution step [11]: 500 RUs |
